Measured values published in patent US4027039A (priority 1975, dated 1977).
Several values for one entry are separate records, joined by “and”; a condition that tells them apart may be missing. Equal entries are not always repeated. Where two headings read alike, the source gives them in different places.

How the values were obtained:
Vaccinia virus [1] = format: in vivo, rabbit
Herpes virus [2] = test: Herpes virus in chicken eggs, single dose 24 hours pre-infection; format: in vivo, chick embryo
[3] = tested on: Influenza, Ann Arbor virus; test: Influenza Ann Arbor in mice, oral; schedule by table; late read day 5 (Tables 15, 25, 29, 30), 6 (18, 20, 22, 23, 26, 27, 28, 54), 7 (14, 19, 21, 24, 53, 56), 8 (16, 17, 51), 9 (11, 55); format: in vivo, mouse
Influenza PR 8 virus [4] = test: Influenza PR 8 in mice, intraperitoneal (Table 47); format: in vivo, mouse
Herpes virus [5] = tested on: Herpes virus
Influenza PR 8 virus [6] = test: Influenza PR 8 in mice, oral; schedule by table; late read day 6 (Table 37), 7 (33, 36), 8 (32, 35, 47), 10 (38); control fraction 18/20 (Table 32), 19/20 (Table 35), else 100%; format: in vivo, mouse
Neurovaccinia virus = test: Neurovaccinia in mice; details: single dose level, three instances
Vaccinia virus [7] = tested on: Vaccinia virus; parameters: species or system fertile eggs; details: various concentrations
Influenza PR 8 virus [8] = test: Influenza PR 8 in mice, subcutaneous; late read day 6 (Table 37), 8 (Table 47); format: in vivo, mouse
Vaccinia IHD virus = format: in vivo, mouse
viral infections = test: Antiviral screening in animals, general statements; details: mouse, in vivo
Mengo virus = Mengo virus in mice, oral; format: in vivo, mouse
Text: The results are illustrated in Table 43.

SMILES: NNC(N)=S [Thiosemicarbazide, thiosemicarbazide]
- approximate percentage confluency of the pox (Vaccinia virus [1]; 0.0000025 μg/kg, Test 2): 85%
- approximate percentage confluency of the pox (Vaccinia virus [1]; 0.000025 μg/kg, Test 2): 25%
- approximate percentage confluency of the pox (Vaccinia virus [1]; 0.00025 μg/kg, Test 2): 40%
- approximate percentage confluency of the pox (Vaccinia virus [1]; 0.0025 μg/kg, Duplicate Experiments): 75% and 60%
- approximate percentage confluency of the pox (Vaccinia virus [1]; 0.0025 μg/kg, Test 1): 2%
- approximate percentage confluency of the pox (Vaccinia virus [1]; 0.0025 μg/kg, Test 2): 80%
- approximate percentage confluency of the pox (Vaccinia virus [1]; 0.0025 μg/kg, Test 3): 85%
- approximate percentage confluency of the pox (Vaccinia virus [1]; 0.025 μg/kg, Duplicate Experiments): 75% and 80%
- approximate percentage confluency of the pox (Vaccinia virus [1]; 0.025 μg/kg, Test 1): 5%
- approximate percentage confluency of the pox (Vaccinia virus [1]; 0.025 μg/kg, Test 2): 5%
- approximate percentage confluency of the pox (Vaccinia virus [1]; 0.025 μg/kg, Test 3): 75% and 90%
- approximate percentage confluency of the pox (Vaccinia virus [1]; 0.25 μg/kg, Test 1): 10%
- approximate percentage confluency of the pox (Vaccinia virus [1]; 0.25 μg/kg, Test 2): 10%
- approximate percentage confluency of the pox (Vaccinia virus [1]; 0.25 μg/kg, Test 3): 30% and 40%
- approximate percentage confluency of the pox (Vaccinia virus [1]; 2.5 μg/kg, Duplicate Experiments): 30% and 20%
- approximate percentage confluency of the pox (Vaccinia virus [1]; 2.5 μg/kg, Test 1): 50%
- approximate percentage confluency of the pox (Vaccinia virus [1]; 2.5 μg/kg, Test 2): 80%
- approximate percentage confluency of the pox (Vaccinia virus [1]; 2.5 μg/kg, Test 3): 30% and 20%
- approximate percentage confluency of the pox (Vaccinia virus [1]; 25 μg/kg, Test 1): 80%
- approximate percentage confluency of the pox (Vaccinia virus [1]; 25 μg/kg, Test 2): 10%
- approximate percentage confluency of the pox (Vaccinia virus [1]; 250 μg/kg, Test 1): 80%
- significance (T test) (Vaccinia virus [1]; dose 0.25 μg/kg): < .01
- significance (T test) (Vaccinia virus [1]; dose 2.5 μg/kg): < .01
- effect on pox formation (Vaccinia virus [1]; rabbit, in vivo): highly significant and reproducible protective effects
- Deaths on day 1 (Herpes virus [2]; 2 μg): 3
- Deaths on day 3 (Herpes virus [2]; 2 μg): 5
- Deaths on day 4 (Herpes virus [2]; 2 μg): 3
- No. dying 5-22 day (Herpes virus [2]; 2 μg): 0
- No. living longer than controls (Herpes virus [2]; 2 μg): 0
- Total deaths, 4th day (Herpes virus [2]; 2 μg): 12
- Deaths on day 2 (Herpes virus [2]; 20 μg): 4
- Deaths on day 3 (Herpes virus [2]; 20 μg): 6
- No. dying 5-22 day (Herpes virus [2]; 20 μg): 0
- No. living longer than controls (Herpes virus [2]; 20 μg): 0
- Total deaths, 4th day (Herpes virus [2]; 20 μg): 12
- Deaths on day 1 (Herpes virus [2]; .00005 μg): 2
- Deaths on day 2 (Herpes virus [2]; .00005 μg): 5
- Deaths on day 3 (Herpes virus [2]; .00005 μg): 2
- No. dying 5-22 day (Herpes virus [2]; .00005 μg): 0
- Total deaths, 4th day (Herpes virus [2]; .00005 μg): 10
- Deaths on day 1 (Herpes virus [2]; .0005 μg): 2
- Deaths on day 2 (Herpes virus [2]; .0005 μg): 3
- Deaths on day 3 (Herpes virus [2]; .0005 μg): 2
- Deaths on day 4 (Herpes virus [2]; .0005 μg): 3
- No. dying 5-22 day (Herpes virus [2]; .0005 μg): 0
- Total deaths, 4th day (Herpes virus [2]; .0005 μg): 10
- Deaths on day 1 (Herpes virus [2]; .005 μg): 4
- Deaths on day 2 (Herpes virus [2]; .005 μg): 3
- Deaths on day 3 (Herpes virus [2]; .005 μg): 3
- No. living longer than controls (Herpes virus [2]; .005 μg): 2
- Total deaths, 4th day (Herpes virus [2]; .005 μg): 10
- Deaths on day 2 (Herpes virus [2]; .05 μg): 3
- Deaths on day 3 (Herpes virus [2]; .05 μg): 5
- No. dying 5-22 day (Herpes virus [2]; .05 μg): 0
- Total deaths, 4th day (Herpes virus [2]; .05 μg): 9
- Deaths on day 1 (Herpes virus [2]; .5 μg): 3
- Deaths on day 2 (Herpes virus [2]; .5 μg): 4
- Deaths on day 3 (Herpes virus [2]; .5 μg): 2
- Deaths on day 4 (Herpes virus [2]; .5 μg): 2
- No. dying 5-22 day (Herpes virus [2]; .5 μg): 0
- Total deaths, 4th day (Herpes virus [2]; .5 μg): 11
- Total no. living longer than controls (Herpes virus [2]; all doses): 7
- No. animals surviving after 5-9 days ([3]; total dose .05 μg): 5
- No. animals surviving after 5-9 days ([3]; total dose .5 μg): 3
- Survivors ([3]; total dose .5 μg): 0
- No. animals surviving after 5-9 days ([3]; total dose .5 μg, listed as thiosemicarbazide): 7 and 6
- Survivors (Influenza PR 8 virus [4]; total dose 5 μg): 0
- Survivors (Influenza PR 8 virus [4]; total dose .005 μg): 0
- Survivors (Influenza PR 8 virus [4]; total dose .05 μg): 0
- Survivors (Influenza PR 8 virus [4]; total dose .5 μg): 0
- activity in words (Herpes virus [5]; mouse, in vivo): quite significant protection
- No. animals surviving when 100% (or given fraction) of controls are dead (Herpes virus [5]; total dose .000005 μg): 0
- Survivors (Herpes virus [5]; total dose .000005 μg): 0
- No. animals surviving after 6-9 days (Herpes virus [5]; total dose .00005 μg): 6
- No. animals surviving when 100% (or given fraction) of controls are dead (Herpes virus [5]; total dose .00005 μg): 3
- Survivors (Herpes virus [5]; total dose .00005 μg): 3
- No. animals surviving after 6-9 days (Herpes virus [5]; total dose .005 μg): 5 and 3 and 6
- No. animals surviving after 6-9 days (Herpes virus [5]; total dose .5 μg): 3
- No. animals surviving after 6-10 days (Influenza PR 8 virus [6]; total dose 5 μg): 3
- No. animals surviving after 6-10 days (Influenza PR 8 virus [6]; total dose .005 μg): 3
- No. animals surviving when 100% (or given fraction) of controls are dead (Influenza PR 8 virus [6]; total dose .005 μg): 3
- Survivors (Influenza PR 8 virus [6]; total dose .005 μg): 3
- No. animals surviving when 100% (or given fraction) of controls are dead (Influenza PR 8 virus [6]; total dose .5 μg): 0
- Survivors (Influenza PR 8 virus [6]; total dose .5 μg): 0
- surviving animals (Neurovaccinia virus): one
- effect on pox formation on the membrane (Vaccinia virus [7]): No effect
- No. animals surviving after 6-8 days (Influenza PR 8 virus [8]; total dose 5 μg): 3
- Survivors (Influenza PR 8 virus [8]; total dose 5 μg): 3
- Survivors (Influenza PR 8 virus [8]; total dose .0005 μg): 0
- Survivors (Influenza PR 8 virus [8]; total dose .005 μg): 0
- Statistical Significance of Tail Lesions (Vaccinia IHD virus; 10 ng, day 12): < .05
- Statistical Significance of Tail Lesions (Vaccinia IHD virus; 10 ng, day 14): < .05
- Statistical Significance of Tail Lesions (Vaccinia IHD virus; 10 ng, day 17): < .05
- Statistical Significance of Tail Lesions (Vaccinia IHD virus; 10 ng, day 21): < .05
- Statistical Significance of Tail Lesions (Vaccinia IHD virus; 1 μg, day 5): < .01
- Statistical Significance of Tail Lesions (Vaccinia IHD virus; 1 μg, day 6): < .01
- Statistical Significance of Tail Lesions (Vaccinia IHD virus; 1 μg, day 7): < .01
- Statistical Significance of Tail Lesions (Vaccinia IHD virus; 1 μg, day 8): < .01
- Statistical Significance of Tail Lesions (Vaccinia IHD virus; 1 μg, day 10): < .01
- Statistical Significance of Tail Lesions (Vaccinia IHD virus; 1 μg, day 11): < .01
- Statistical Significance of Tail Lesions (Vaccinia IHD virus; 1 μg, day 12): < .01
- Statistical Significance of Tail Lesions (Vaccinia IHD virus; 1 μg, day 14): < .01
- Statistical Significance of Tail Lesions (Vaccinia IHD virus; 1 μg, day 17): < .01
- Statistical Significance of Tail Lesions (Vaccinia IHD virus; 1 μg, day 21): < .01
- Statistical Significance of Tail Lesions (Vaccinia IHD virus; 10 [μg], day 6): < .01
- Statistical Significance of Tail Lesions (Vaccinia IHD virus; 10 [μg], day 10): < .05
- Statistical Significance of Tail Lesions (Vaccinia IHD virus; 10 [μg], day 11): < .01
- Statistical Significance of Tail Lesions (Vaccinia IHD virus; 10 [μg], day 12): < .01
- Statistical Significance of Tail Lesions (Vaccinia IHD virus; 10 [μg], day 14): < .01
- Statistical Significance of Tail Lesions (Vaccinia IHD virus; 10 [μg], day 17): < .01
- Statistical Significance of Tail Lesions (Vaccinia IHD virus; 10 [μg], day 21): < .01
- Statistical Significance of Tail Lesions (Vaccinia IHD virus; 100 [ng], day 8): < .05
- Statistical Significance of Tail Lesions (Vaccinia IHD virus; 100 [ng], day 10): < .01
- Statistical Significance of Tail Lesions (Vaccinia IHD virus; 100 [ng], day 11): < .01
- Statistical Significance of Tail Lesions (Vaccinia IHD virus; 100 [ng], day 12): < .01
- Statistical Significance of Tail Lesions (Vaccinia IHD virus; 100 [ng], day 14): < .01
- Statistical Significance of Tail Lesions (Vaccinia IHD virus; 100 [ng], day 17): < .01
- Statistical Significance of Tail Lesions (Vaccinia IHD virus; 100 [ng], day 21): < .01
- activity in words (viral infections): active
- Survivors (Mengo virus; total dose .0000005 μg): 0
- No. animals surviving after 6 days (Mengo virus; total dose .000005 μg): 2
- No. animals surviving after 6 days (Mengo virus; total dose .00005 μg): 5
- Survivors (Mengo virus; total dose .0005 μg): 0
- Survivors (Mengo virus; total dose .005 μg): 0
